These results are taken from patent US4966962A, “Reverse analogue of actinomycin D” (Trustees of Boston University, priority 1988, dated 1990).

Converted amounts (≈) assume the structure as drawn. Like-named read-outs stand apart in the source and are kept apart here. *1 amine or outer side, *2 acyl side, *3 side chain or, on linkers, in order; H or OH if unused. Where a SMILES comes first, the peptide text is derived from it. Bridges are numbered along the chain shown (N, C = ends). Roman numbers before positions name the chains, in order. [ ]: non-standard residue; d: D form. Actinocin(9to1) = Cc1c2oc3c(C)ccc(C(=O)[*:1])c3nc-2c(C(=O)[*:2])c(N)c1=O; NMeV = CN[C@H](C(=O)O)C(C)C; Sar = CNCC(=O)O

Series [1] deals with rat liver microsomes. In words: Stimulation of adrenochrome formation (superoxide) by rat hepatic microsomal incubations. The class given is biochemical. The conditions noted are these: for adrenochrome formation in presence of SOD: with SOD (superoxide dismutase) 5 ug/mL; for percentage stimulation of adrenochrome formation / adrenochrome formation: without SOD; for percentage stimulation of adrenochrome formation: (drug-stimulated rate - basal rate)/basal rate × 100; for adrenochrome formation: average ± standard error of triplicate. The source says: (§1) It has been reported that the quinone imino chromophore of actinomycin can be subjected to enzyme-catalyzed single-electron reduction to give free-radical species that generate superoxides by reacting with molecular oxygen. The process needs a reductive cofactor NADPH, which is oxidized to NADP^+ during the process, giving a change in the absorbance at 340 nm that can be measured spectrophotometerically. Alternatively, the superoxides generated during the process may be allowed to react with epinephrine to produce adrenochrome, a chromophore with strong absorbance at 480 nm that can be measured spectrophotmetrically.
(§2) The superoxide formations were studied via NADPH oxidation catalyzed by AMD analogues in the presence of rat liver microsomes. […] The process of adrenochrome formation is inhibited by superoxide dismutase, confirming that superoxide is indeed generated in these systems.
(§3) ^a The percentage stimulation = (drugstimulated rate basal rate)/basa
(§4) rate × 100 and is shown in parentheses. NADPH oxidation was measure
(§5) at 340 nm and adrenochrome formation was measured at 489 nm; the values
(§6) are average ± standard errors of triplicate analyses. ^b SOD,

Series [2] concerns CX-1 human colon adenocarcinoma. Kind of series: Chemotherapy of human colon CX-1 tumor heterotransplanted in nude mice. It counts as in vivo, human tumor in athymic mice.
For series [3], the system named is rat liver microsomes. Kind of series: Stimulation of NADPH oxidation by rat hepatic microsomal incubations. It counts as biochemical. The following applies: for percentage stimulation of NADPH oxidation: (drug-stimulated rate - basal rate)/basal rate × 100; for NADPH oxidation: measured at 340 nm, average ± standard error of triplicate.
Excerpt: as §1, §2, §3, §4, §5, §6

A further series concerns mouse melanoma (B16). Kind of series: In vitro inhibition of tumor cell growth. It counts as cell-based. The following applies: B16 cell line. The source says: The comparative cell growth inhibitory activity of RAD's and SAD are reported (data in Table IV, supplementary material). The cell lines used are human lymphoblastic leukemia (CCRF-CEM), murine lymphocytic leukemia (P388) and lymphoid leukemia (L1210), and mouse melanoma (B16). […] In general, the cytotoxic potencies of the analogues are in the order: […]

The next series relates to colon tumor 26. In words: In vivo activity against colon tumor 26. Further details: species or system CDF1 mice. The conditions noted are these: three doses over 9-day period.
A further series is described as follows: Solubility in water. The conditions noted are these: for solubility in water: at 20° C. It counts as physicochemical. How it is done: Synthesis of "Reverse" III AMD Analogue (RAD III, 3c). The synthesis of RAD III (3c) is shown schematically in Scheme I. Compound 4 was reacted with the benzyl ester of oxalacetic acid at 80° C. according to the procedure reported. The resulting product 5 with the CH2 COOCH2 C6 H5 substituent at the C-2 of the oxazole ring was debenzylated to 6, and compound 6 was coupled with excess 1,4-diaminobutane by DCC in pyridine. […] Like AMD and its other "reverse" analogues, RAD III (3c) is 16-fold more soluble in water at 4° C. than at 20° C.

Series [4] concerns calf thymus DNA. The following applies: value given with references 2,7; cited from earlier work.
Series [5] has as its system calf thymus DNA. Kind of series: Equilibrium binding constants from Scatchard plots of binding isotherms. The conditions noted are these: 0.01M phosphate buffer, pH 7.0 at 20° C. How it is done:
The equilibrium binding constants of RAD III (3c), determined from the Scatchard plots of binding isotherms with use of calf thymus DNA, are Kapp, 2.9×10^6 M^-1, and Bapp, 0.040 in 0.01M phosphate buffer, pH 7.0 at 20° C.

The next series concerns low molecular weight DNA. In words: Viscometry experiment (intercalation into DNA). It counts as binding. The following applies: DNA 0.5×10^5 to 1.0×10^5 daltons.

Turning to `Cc1c2oc3c(C)c(O)c(N)c(C(=O)N[C@@H]4C(=O)N[C@H](C(C)C)C(=O)N5CCC[C@H]5C(=O)N(C)CC(=O)N(C)[C@@H](C(C)C)C(=O)O[C@@H]4C)c3nc-2c(C(=O)N[C@@H]2C(=O)N[C@H](C(C)C)C(=O)N3CCC[C@H]3C(=O)N(C)CC(=O)N(C)[C@@H](C(C)C)C(=O)O[C@@H]2C)c(N)c1=O` [SAD (2)], in the series on rat liver microsomes [1], the “adrenochrome formation in presence of SOD” value is “inhibited”, the “percentage stimulation of adrenochrome formation” value is reported as 815% and the adrenochrome formation is given as 19.3 ± 1.04 nmol/min per mg of protein. For the same compound, in series [2] (dose 40 μg/kg iv once a week for three weeks, TST 15, observed day 22), the “% T/C, optimal” value is given as 18%. Besides, the “% T/C, optimal” value in [2] (dose 55 μg/kg iv once a week for three weeks, TST 15, observed day 22) is recorded as 19%. The “% T/C, optimal” value in [2] (dose 70 μg/kg iv once a week for three weeks, TST 15, observed day 32) amounted to 5%. Also, in the series on rat liver microsomes [3], the “percentage stimulation of NADPH oxidation” value came out at 606% and the NADPH oxidation was 64.3 ± 2.11 nmol/min per mg of protein. Besides, in the series with mouse melanoma (B16), the “cell growth inhibitory potency relative to AMD” value is “two to fourfold”. Besides, in the series on colon tumor 26, the “activity against colon tumor 26” value is listed as “significant activity”, the “increase in %ILS over controls” value was 50-150% and the “increase of survival rate at 60 days” value is recorded as 10-40%.
In the case of `Cc1c2oc3c(C)c4oc(-c5ccccc5)nc4c(C(=O)N[C@@H]4C(=O)N[C@H](C(C)C)C(=O)N5CCC[C@H]5C(=O)N(C)CC(=O)N(C)[C@@H](C(C)C)C(=O)O[C@@H]4C)c3nc-2c(C(=O)N[C@@H]2C(=O)N[C@H](C(C)C)C(=O)N3CCC[C@H]3C(=O)N(C)CC(=O)N(C)[C@@H](C(C)C)C(=O)O[C@@H]2C)c(N)c1=O` [RAD II (3b)], in the series on rat liver microsomes [1], the “adrenochrome formation in presence of SOD” value is “inhibited”, the “percentage stimulation of adrenochrome formation” value worked out at 800% and the adrenochrome formation is recorded as 18.8 ± 1.9 nmol/min per mg of protein. Further, in the series on rat liver microsomes [3], the “percentage stimulation of NADPH oxidation” value was determined as 610% and the NADPH oxidation is 65.0 ± 5.95 nmol/min per mg of protein.
On to `Cc1c2oc3c(C)ccc(C(=O)N[C@@H]4C(=O)N[C@H](C(C)C)C(=O)N5CCC[C@H]5C(=O)N(C)CC(=O)N(C)[C@@H](C(C)C)C(=O)O[C@@H]4C)c3nc-2c(C(=O)N[C@@H]2C(=O)N[C@H](C(C)C)C(=O)N3CCC[C@H]3C(=O)N(C)CC(=O)N(C)[C@@H](C(C)C)C(=O)O[C@@H]2C)c(N)c1=O` [AMD (1), Actinomycin D] (I: T[dV]P[Sar][NMeV] / II: T[dV]P[Sar][NMeV]; ester I:1-I:C, II:1-II:C; linker I:N-II:N via Actinocin(9to1)), for which, in the series with rat liver microsomes [1], the “adrenochrome formation in presence of SOD” value is given as “inhibited”, the “percentage stimulation of adrenochrome formation” value stood at 8.5% and the adrenochrome formation is 2.29 ± 0.33 nmol/min per mg of protein. Further, the solubility in water in the series “Solubility in water” is 1000 µg/mL (≈ 797 µM). Moreover, in the series with calf thymus DNA [4], the Bapp is 0.108 and the “Kapp (equilibrium binding constant)” value was 2.3e+07 M⁻¹. Further, in the series with rat liver microsomes [3], the “percentage stimulation of NADPH oxidation” value was 9.9% and the NADPH oxidation was 10.01 ± 0.90 nmol/min per mg of protein.
Turning to `Cc1c2oc3c(C)c4oc(CC(=O)NCCCCN)nc4c(C(=O)N[C@@H]4C(=O)N[C@H](C(C)C)C(=O)N5CCC[C@H]5C(=O)N(C)CC(=O)N(C)[C@@H](C(C)C)C(=O)O[C@@H]4C)c3nc-2c(C(=O)N[C@@H]2C(=O)N[C@H](C(C)C)C(=O)N3CCC[C@H]3C(=O)N(C)CC(=O)N(C)[C@@H](C(C)C)C(=O)O[C@@H]2C)c(N)c1=O` [RAD III (3c)], in the series on calf thymus DNA [5], the Bapp is given as 0.040 and the “Kapp (equilibrium binding constant)” value was determined as 2.9e+06 M⁻¹. Besides, in the series on rat liver microsomes [1], the “adrenochrome formation in presence of SOD” value is “inhibited”, the “percentage stimulation of adrenochrome formation” value was found to be 870% and the adrenochrome formation is recorded as 22.1 ± 2.2 nmol/min per mg of protein. Further, the “fold more soluble in water at 4° C. than at 20° C.” value in the series “Solubility in water” (4° C. vs 20° C.) amounted to 16 fold. In the series “Solubility in water”, this compound showed a solubility in water of 2100 µg/mL (≈ 1470 µM). The “% T/C, optimal” value in series [2] (dose 75 μg/kg iv once a week for three weeks, TST 18, observed day 27) is 13%. Moreover, the “change in the intrinsic viscosity with increasing [ligand]/[DNA base pair]” value in the series with low molecular weight DNA is reported as “failed to demonstrate any measurable change in the intrinsic viscosity”. In the series with rat liver microsomes [3], the “percentage stimulation of NADPH oxidation” value is listed as 812% and the NADPH oxidation is 87.1 ± 7.1 nmol/min per mg of protein. The “cell growth inhibitory potency relative to AMD” value with mouse melanoma (B16) is “two to fourfold”. In addition, in the series on colon tumor 26, the “activity against colon tumor 26” value was “significant activity”.
